Like-named read-outs stand apart in the source and are kept apart here.
How the values were obtained:
velvetleaf = assay: Bioefficacy testing with glyphosate, velvetleaf control; format: in vivo
Description: (§1) The adjuvancy of alkylene carbonates with glyphosate was then tested. Bioefficacy testing was conducted on lambsquarters and velvetleaf weeds. The mono-isopropylamine salt of glyphosate was applied to velvetleaf and lambsquarters weeds at 0.25 lb ae/acre, and the adjuvant mixtures were present at 0.1 v/v%. The spray volume was 20 gal/acre, and application was made at 25 psig.
(§2) Evaluations, with the same adjuvant mixtures listed above, were also made with ammonium sulfate (AMS) at 17 lb/100 gallons water carrier. For control purposes, a group of plants was not treated with any glyphosate, and another group of plants was treated with only glyphosate.
(§3) The two alkylene carbonate blends of PC and BC were compared to diethylene glycol (DEG) as a standard solvent in combination with two different nonionic surfactant systems. One surfactant system was a SURFONIC® N-95 alkyl phenol ethoxylate, and the second surfactant system was a SURFONIC® DDA-8 branched alcohol ethoxylate. (SURFONIC® brand ethoxylates are commercially available from Huntsman Petrochemical Corporation, Houston, Tex.).
(§4) The results are expressed in terms of percent control, where 0% represents no plant necrosis, and 100% represents complete plant necrosis.

lambsquarters = assay: Bioefficacy testing with glyphosate, lambsquarters control; format: in vivo
Description: as §1, §2, §3, §4

Dipole moment = format: physicochemical; conditions: 40° C.
Surface tension = format: physicochemical
mammals = conditions: in vivo; cited from earlier work
[1] = Hansen Solubility Parameters of JEFFSOL brand alkylene carbonates
[2] = cited from earlier work
rabbits = conditions: undiluted; cited from earlier work
dogs = conditions: 21-day test; cited from earlier work
guinea pigs = conditions: 21-day test; cited from earlier work
[3] = tested on: Rat Hepatocyte Primary Culture; conditions: Rat Hepatocyte Primary Culture/DNA Repair Test; cited from earlier work
skin = conditions: neat; cited from earlier work
[4] = criteria promulgated by the European Union; cited from earlier work
[5] = tested on: activated sludge bacteria taken from a wastewater treatment plant; conditions: 7 day test at 300 ppm; cited from earlier work
[6] = free acid form; cited from earlier work

Row | SMILES | Dipole Moment (Dipole moment) [Debyes] | Surface Tension (Surface tension; 25° C. (* = supercooled)) | Surface Tension (Surface tension; 40° C.) [dynes/cm] | toxicity towards mammals (mammals) | Hansen Sol Par, dispersive [1] [cal^1/2 cm^−3/2] | Hansen Sol Par, hydrogen bonding [1] [cal^1/2 cm^−3/2] | Hansen Sol Par, polar [1] [cal^1/2 cm^−3/2] | Hansen Sol Par, total [1] [cal^1/2 cm ^−3/2] | other results
1 | N.N.O=S(=O)(O)O [AMS, ammonium sulfate] | – | – | – | – | – | – | – | – | velvetleaf necrosis, overall (velvetleaf; FIG. 2, glyphosate with AMS 17 lb/100 gallons): dramatically increases velvetleaf necrosis; lambsquarters control, overall efficacy (lambsquarters; FIG. 4, glyphosate with AMS 17 lb/100 gallons): does not produce the dramatic improved efficacy
2 | CCC1COC(=O)O1 (stereo not drawn) [BC, 1,2-butylene carbonate] | 5.28 | 38.1 dynes/cm | 37.0 | relatively low toxicity | 8.3 | 4.8 | 3.0 | 10.0 | –
3 | CNC(=O)CSP(=S)(OC)OC [Cygon, dimethoate] | – | – | – | – | – | – | – | – | time to lose 50 percent of pest control power ([2]; mixed in water of pH 9): 48 min; time to lose 50 percent of pest control power ([2]; pH of 6): 720 min
4 | O=C1OCCO1 [EC, ethylene carbonate] | 4.80 | 44.0* dynes/cm | 42.2 | – | – | – | – | – | –
5 | CC1COC(=O)O1 (stereo not drawn) [PC, propylene carbonate] | 4.98 | 40.9 dynes/cm | 39.6 | relatively low toxicity | 9.8 | 2.0 | 8.8 | 13.3 | LD50 (rabbits): > 20 mL/kg; toxicity by inhalation (dogs): non-toxic; toxicity by inhalation (guinea pigs): non-toxic; genotoxicity [3]: negative; skin irritation (skin): moderate skin irritation; biodegradability [4]: very readily biodegradable; adverse effects on activated sludge bacteria [5]: did not show adverse effects
6 | O=C(O)CNCP(=O)(O)O [glyphosate, N-phosphonomethylglycine, reference compound] | – | – | – | – | – | – | – | – | velvetleaf control (necrosis), overall (velvetleaf; FIG. 1, glyphosate IPA salt 0.25 lb ae/acre, adjuvant 0.1 v/v%, no AMS): very little observed necrosis; lambsquarters control (necrosis/kill), overall (lambsquarters; FIG. 3, glyphosate 0.25 lb ae/acre, adjuvant 0.1 v/v%, no AMS): very little observed necrosis; water solubility [6]: low water solubility

— US7297660B2, “Alkylene carbonate adjuvants” (Huntsman Petrochemical Corporation, priority 2001, dated 2007)
